Laboratory results from PubChem BioAssay (NCI).
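Exposure lasted 48 hours, with cells grown in 96-well plates and compounds tested at five concentrations. The concentration for full growth arrest is given as TGI.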

Assays:
Assay in all cases: inhibition of tumour cell growth, NCI panel, 48 h
[1] = tested on: A549 NSCLC
[2] = tested on: SF-295 CNS
[3] = tested on: MDA-N
[4] = tested on: OVCAR-4 ovarian
[5] = tested on: MDA-MB-231 breast
[6] = tested on: HS 578T breast
[7] = tested on: SK-MEL-2 melanoma
[8] = tested on: U251 CNS
[9] = tested on: SK-OV-3 ovarian
[10] = tested on: RPMI-8226 leukemia
[11] = tested on: MDA-MB-435
[12] = tested on: PC-3 prostate
[13] = tested on: UACC-62 melanoma
[14] = tested on: OVCAR-3 ovarian
[15] = tested on: NCI-H226 lung
[16] = tested on: RXF 393 renal
[17] = tested on: SNB-75 CNS
[18] = tested on: DU-145 prostate
[19] = tested on: SK-MEL-5 melanoma
[20] = tested on: LOX IMVI melanoma
[21] = tested on: OVCAR-5 ovarian
[22] = tested on: SR leukemia
[23] = tested on: MOLT-4 leukemia
[24] = tested on: NCI-H522 lung
[25] = tested on: HCT-116 colon
[26] = tested on: IGROV1 ovarian
[27] = tested on: MALME-3M melanoma
[28] = tested on: HL-60(TB) leukemia
[29] = tested on: T-47D breast
[30] = tested on: HCC-2998 colon
[31] = tested on: TK-10 renal
[32] = tested on: 786-0 renal
[33] = tested on: SK-MEL-28 melanoma
[34] = tested on: SNB-19 CNS
[35] = tested on: NCI-H460 lung
[36] = tested on: EKVX NSCLC
[37] = tested on: ACHN renal
[38] = tested on: M14 melanoma
[39] = tested on: SF-539 CNS
[40] = tested on: SW-620 colon
[41] = tested on: COLO 205 colon
[42] = tested on: SN12C renal
[43] = tested on: SF-268 CNS
[44] = tested on: CAKI-1 renal
[45] = tested on: UACC-257 melanoma
[46] = tested on: OVCAR-8 ovarian
[47] = tested on: CCRF-CEM leukemia
[48] = tested on: HOP-62 NSCLC
[49] = tested on: A498 renal
[50] = tested on: HOP-92 NSCLC
[51] = tested on: UO-31 renal
[52] = tested on: KM12 colon
[53] = tested on: K-562 leukemia
[54] = tested on: HT29 colon
[55] = tested on: HCT-15 colon
[56] = tested on: MCF7 breast
[57] = tested on: NCI-H23 lung
[58] = tested on: NCI/ADR-RES ovarian
[59] = tested on: BT-549 breast

`COc1ccc(/C=C2\CN(C)C/C(=C\c3ccc(OC)c(OC)c3OC)C2=O)c(OC)c1OC` was tested, and the TGI [1] was 1.07 µM, the TGI [2] was 1.01 µM and the TGI [3] was 1.25 µM. For the same compound, the TGI [4] was 1.13 µM, the TGI [5] was 0.488 µM and the TGI [6] was greater than 100 µM. The TGI [7] was 2.4 µM, the TGI [8] was 0.177 µM and the TGI [9] was 1.89 µM. For the same compound, the TGI [10] was 0.211 µM, the TGI [11] was 0.0541 µM and the TGI [12] was 1.43 µM. It also gave a TGI [13] of 0.548 µM, a TGI [14] of 0.335 µM and a TGI [15] of 2.49 µM. The TGI [16] was 0.342 µM, the TGI [17] was 2.64 µM and the TGI [18] was 1.39 µM. It also gave a TGI [19] of 0.705 µM, a TGI [20] of 0.319 µM and a TGI [21] of 0.656 µM. The TGI [22] was 0.0854 µM, the TGI [23] was 0.0574 µM and the TGI [24] was 0.473 µM. For the same compound, the TGI [25] was 0.196 µM, the TGI [26] was 1.07 µM and the TGI [27] was 0.333 µM. It also gave a TGI [28] of 0.044 µM, a TGI [29] of 6.22 µM and a TGI [30] of 0.335 µM. For the same compound, the TGI [31] was 2.33 µM, the TGI [32] was 0.806 µM and the TGI [33] was 0.393 µM. The TGI [34] was 1.2 µM, the TGI [35] was 0.435 µM and the TGI [36] was 4.37 µM. For the same compound, the TGI [37] was 0.565 µM, the TGI [38] was 0.283 µM and the TGI [39] was 0.311 µM. It also gave a TGI [40] of 0.425 µM, a TGI [41] of 0.287 µM and a TGI [42] of 0.449 µM. It also gave a TGI [43] of 2.01 µM, a TGI [44] of 1.55 µM and a TGI [45] of 0.571 µM. The TGI [46] was 0.343 µM, the TGI [47] was 0.0805 µM and the TGI [48] was 0.84 µM. The TGI [49] was 0.313 µM and the TGI [50] was 1.73 µM.

`COC12c3ccccc3-c3ccccc3C1[C@H]1C(=O)OC(=O)[C@H]12` (some centres undefined) was tested, and the TGI [2] was greater than 10 µM, the TGI [3] was greater than 10 µM and the TGI [4] was greater than 10 µM. It also gave a TGI [5] greater than 10 µM, a TGI [6] greater than 10 µM and a TGI [7] greater than 10 µM. It also gave a TGI [8] greater than 10 µM, a TGI [9] greater than 10 µM and a TGI [10] greater than 10 µM. It also gave a TGI [51] greater than 10 µM, a TGI [11] greater than 10 µM and a TGI [12] greater than 10 µM. The TGI [14] was greater than 10 µM, the TGI [15] was greater than 10 µM and the TGI [16] was greater than 10 µM. For the same compound, the TGI [17] was greater than 10 µM, the TGI [18] was greater than 10 µM and the TGI [52] was greater than 10 µM. For the same compound, the TGI [19] was greater than 10 µM, the TGI [20] was greater than 10 µM and the TGI [21] was greater than 10 µM. The TGI [22] was greater than 10 µM, the TGI [23] was greater than 10 µM and the TGI [24] was greater than 10 µM. It also gave a TGI [53] greater than 10 µM, a TGI [26] greater than 10 µM and a TGI [27] greater than 10 µM. For the same compound, the TGI [28] was greater than 10 µM, the TGI [29] was greater than 10 µM and the TGI [30] was greater than 10 µM. It also gave a TGI [31] greater than 10 µM, a TGI [32] greater than 10 µM and a TGI [33] greater than 10 µM. The TGI [34] was greater than 10 µM, the TGI [35] was greater than 10 µM and the TGI [36] was greater than 10 µM. The TGI [37] was greater than 10 µM, the TGI [38] was greater than 10 µM and the TGI [39] was greater than 10 µM. The TGI [54] was greater than 10 µM, the TGI [55] was greater than 10 µM and the TGI [40] was greater than 10 µM. The TGI [41] was greater than 10 µM, the TGI [56] was greater than 10 µM and the TGI [42] was greater than 10 µM. The TGI [57] was greater than 10 µM, the TGI [43] was greater than 10 µM and the TGI [44] was greater than 10 µM. The TGI [45] was greater than 10 µM, the TGI [46] was greater than 10 µM and the TGI [47] was greater than 10 µM. For the same compound, the TGI [48] was greater than 10 µM, the TGI [49] was greater than 10 µM and the TGI [50] was greater than 10 µM. The TGI [58] was greater than 10 µM.

For `CC(=O)OCC1OC(n2c(=O)[nH]c(=O)c3sccc32)C(Br)C1OC(C)=O` (centres undefined), the TGI [1] was greater than 100 µM, the TGI [2] was greater than 100 µM and the TGI [3] was greater than 100 µM. For the same compound, the TGI [4] was greater than 100 µM, the TGI [5] was greater than 100 µM and the TGI [6] was greater than 100 µM. It also gave a TGI [7] greater than 100 µM, a TGI [8] greater than 100 µM and a TGI [10] greater than 100 µM. It also gave a TGI [51] greater than 100 µM, a TGI [11] greater than 100 µM and a TGI [12] greater than 100 µM. The TGI [14] was greater than 100 µM, the TGI [15] was greater than 100 µM and the TGI [16] was greater than 100 µM. The TGI [17] was greater than 100 µM, the TGI [18] was greater than 100 µM and the TGI [52] was greater than 100 µM. The TGI [19] was greater than 100 µM, the TGI [20] was greater than 100 µM and the TGI [21] was greater than 100 µM. For the same compound, the TGI [22] was greater than 100 µM, the TGI [23] was greater than 100 µM and the TGI [24] was greater than 100 µM. It also gave a TGI [53] greater than 100 µM, a TGI [25] greater than 100 µM and a TGI [26] greater than 100 µM. The TGI [27] was greater than 100 µM, the TGI [28] was greater than 100 µM and the TGI [30] was greater than 100 µM. It also gave a TGI [31] greater than 100 µM, a TGI [32] greater than 100 µM and a TGI [33] greater than 100 µM. It also gave a TGI [34] greater than 100 µM, a TGI [35] greater than 100 µM and a TGI [36] greater than 100 µM. It also gave a TGI [37] greater than 100 µM, a TGI [38] greater than 100 µM and a TGI [39] greater than 100 µM. For the same compound, the TGI [54] was greater than 100 µM, the TGI [55] was greater than 100 µM and the TGI [40] was greater than 100 µM. It also gave a TGI [41] greater than 100 µM, a TGI [56] greater than 100 µM and a TGI [42] greater than 100 µM. The TGI [57] was greater than 100 µM, the TGI [59] was greater than 100 µM and the TGI [43] was greater than 100 µM. For the same compound, the TGI [44] was greater than 100 µM, the TGI [45] was greater than 100 µM and the TGI [46] was greater than 100 µM. The TGI [47] was greater than 100 µM, the TGI [48] was greater than 100 µM and the TGI [49] was greater than 100 µM. It also gave a TGI [50] greater than 100 µM and a TGI [58] greater than 100 µM.

In the case of `Cc1ccc(S(=O)(=O)NCCSCCSCCNS(=O)(=O)c2ccc(C)cc2)cc1`, the TGI [1] was greater than 100 µM, the TGI [2] was greater than 100 µM and the TGI [3] was greater than 100 µM. The TGI [4] was greater than 100 µM, the TGI [6] was greater than 100 µM and the TGI [9] was greater than 100 µM. It also gave a TGI [51] greater than 100 µM, a TGI [12] greater than 100 µM and a TGI [15] greater than 100 µM. For the same compound, the TGI [16] was greater than 100 µM, the TGI [17] was 68.7 µM and the TGI [18] was greater than 100 µM. It also gave a TGI [52] greater than 100 µM, a TGI [19] of 18 µM and a TGI [20] greater than 100 µM. For the same compound, the TGI [22] was greater than 100 µM, the TGI [23] was greater than 100 µM and the TGI [24] was greater than 100 µM. The TGI [53] was greater than 100 µM, the TGI [25] was greater than 100 µM and the TGI [30] was greater than 100 µM. For the same compound, the TGI [31] was greater than 100 µM, the TGI [33] was greater than 100 µM and the TGI [34] was greater than 100 µM. For the same compound, the TGI [35] was greater than 100 µM, the TGI [37] was greater than 100 µM and the TGI [54] was greater than 100 µM. For the same compound, the TGI [40] was greater than 100 µM, the TGI [41] was 41.2 µM and the TGI [56] was greater than 100 µM. For the same compound, the TGI [42] was greater than 100 µM, the TGI [43] was greater than 100 µM and the TGI [45] was greater than 100 µM. It also gave a TGI [46] greater than 100 µM, a TGI [47] greater than 100 µM and a TGI [49] of 91.6 µM. It also gave a TGI [50] greater than 100 µM and a TGI [58] greater than 100 µM.
